Results published in patent US10418127B2, “Method of formulating a skin-lightening composition” (The Procter & Gamble Company, priority 2012, dated 2019).

What was measured:
[1] = tested on: Chinese females, 25-55 years old with hyperpigmented spots; experiment: 9-week split-face, vehicle-controlled clinical skin tone benefit study; assay type: in vivo, human; conditions: 0.05% in SC-99 vehicle, vs vehicle
From the text: This Example provides evidence of the advantages of using composite signatures and illustrates clinical affirmation of the C-map model for predicting efficacy of skin-lightening agents. This Example supports embodiments related to composite signatures (as described at the end of Example 3). An illustrative “Skin Tone” Signature developed from a genomics study using a composite skin-lightening benchmark agent signature is derived from Niacinamide, Hexamidine, Sepiwhite, and NAG. The signature is used to query C-map and generate a list of potential skin-lightening agents. A top hit, Chlorhexidine Diactate (CD) is entered into clinical testing for confirmation of efficacy. The control for clinical efficacy is a 5% Niacinamide +1% Sepiwhite formulation in the control vehicle.
Primary endpoints are changes in color spot area fraction (image analysis) and melanin spot area fraction (NC2) from baseline. Secondary endpoints are changes from baseline in L*a*b (color image analysis), mean melanin gray scale (NC2), and melanin evenness (NC2). Texture area fraction and pore area fraction are also evaluated to explore impact on other aspects relating to overall skin tone. […] Statistically significant superiority to the high efficacy benchmark skin active agent to vehicle performance is the clinical success criteria.
Study Design: The experimental protocol included a 9-week (1-week preconditioning & 8-week treatment), randomized, double-blind, round robin, vehicle-controlled, split-face tone benefit study. The subject population included 330 Chinese females, 25-55 years old with hyperpigmented spots. 318 subjects completed the entire study. […] Olay Complete SPF 15 UV Moisturizing Lotion is concomitantly used during pre-conditioning and treatment. 0.5 g each test product per half-face (forehead to jaw line; ˜4 mg/cm^2) is dosed 2× a day (morning/evening). Color SAF and treatment area, Melanin SAF, gray scale, evenness by NC2, and additional measurement of Fine Lines and Wrinkle and Texture are by REAL 3.01A. Data collection points include baseline, and ends of weeks 4, 6 and 8. The tested hypothesis is that there is no difference in clinical endpoint versus the benchmark composition treatment. Study site is Kuntai Clinical Center, Beijing, China and study time frame is February 2010 (pre-conditioning) to April 2010.

[2] = tested on: tert-Keratinocyte (tKC) cell line; experiment: C-map query with the composite skin tone benchmark signature; assay type: cell-based, human; conditions: composite signature of Niacinamide, Hexamidine, Sepiwhite and NAG
Method: Individual experiments (referred to as batches) generally comprise 30 to 96 samples analyzed using Affymetrix GeneChip® technology platforms, containing 6 replicates of the vehicle control (e.g., DSMO), 2 replicate samples of a positive control that gives a strong reproducible effect in the cell type used, and samples of the test material/perturbagen. Replication of the test material is done in separate batches due to batch effects. In vitro testing was performed in 6-well plates to provide sufficient RNA for GeneChip® analysis (2-4 μg total RNA yield/well).
Human telomerized keratinocytes (tKC) were obtained from the University of Texas, Southwestern Medical Center, Dallas, Tex. tKC cells were grown in EpiLife® media with 1× Human Keratinocyte Growth Supplement (Invitrogen, Carlsbad, Calif.) on collagen I coated cell culture flasks and plates (Becton Dickinson, Franklin Lakes, N.J.). Keratinocytes were seeded into 6-well plates at 20,000 cells/cm^2 24 hours before chemical exposure. Human skin fibroblasts (BJ cell line from ATCC, Manassas, Va.) were grown in Eagle's Minimal Essential Medium (ATCC) supplemented with 10% fetal bovine serum (HyClone, Logan, Utah) in normal cell culture flasks and plates (Corning, Lowell, Mass.). BJ fibroblasts were seeded into 6-well plates at 12,000 cells/cm^2 24 hours before chemical exposure. […]

melanocyte = conditions: in vitro; cited from earlier work
[3] = tested on: ultraviolet-induced skin pigmentation; conditions: Shimizu K. et al., Planta Med 2002; cited from earlier work
tyrosinase = molecular target: T1, tyrosinase (Homo sapiens, UniProt P14679); conditions: in vitro; cited from earlier work
T1 sequence (P14679 19-529): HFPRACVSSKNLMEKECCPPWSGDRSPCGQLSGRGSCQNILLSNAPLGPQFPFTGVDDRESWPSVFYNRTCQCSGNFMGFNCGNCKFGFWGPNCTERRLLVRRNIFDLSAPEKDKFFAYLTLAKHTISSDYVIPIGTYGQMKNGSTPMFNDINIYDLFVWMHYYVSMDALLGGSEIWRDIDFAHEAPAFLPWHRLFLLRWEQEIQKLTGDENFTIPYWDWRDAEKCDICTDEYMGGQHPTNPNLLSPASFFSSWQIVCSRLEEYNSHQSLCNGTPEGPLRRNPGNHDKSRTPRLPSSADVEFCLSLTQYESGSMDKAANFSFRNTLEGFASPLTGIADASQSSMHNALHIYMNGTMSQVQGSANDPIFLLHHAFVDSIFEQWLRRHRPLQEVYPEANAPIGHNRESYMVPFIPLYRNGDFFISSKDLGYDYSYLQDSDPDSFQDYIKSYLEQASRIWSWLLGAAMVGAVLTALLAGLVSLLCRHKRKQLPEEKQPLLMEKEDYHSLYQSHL

[4] = tested on: melanosome transfer from melanocytes to keratinocytes; conditions: in vitro; cited from earlier work

## CC(=O)O.CC(=O)O.NC(=N\CCCCCC/N=C(N)/N=C(\N)Nc1ccc(Cl)cc1)/N=C(\N)Nc1ccc(Cl)cc1 [CD, Chlorhexidine Diacetate]
[1]; 2x a day, week 8
  spot area fraction color test: significantly fewer spots when compared to vehicle
[1]; week 8
  Basal skin tone: demonstrated superiority
  Pore area fraction: superior efficacy
  Texture area fraction: superior efficacy
[1]; weeks 6 and 8
  NC2 Melanin evenness test: superiority to the vehicle
  spot area fraction NC2 test: significantly reduced fraction when compared to the vehicle
[2]
  connectivity to the tone composite benchmark signature query: top connectivity hit

## C=CCCCCCCCCC(=O)N[C@@H](Cc1ccccc1)C(=O)O [N-undecylenoyl-L-phenylalanine]
melanocyte
  binding of alpha-MSH to the melanocyte: inhibit biding of alpha-MSH to the melanocyte

## COc1cc2oc(-c3ccc(O)cc3O)c(CC=C(C)C)c(=O)c2c(O)c1/C=C/C(C)C [artocarpin]
[3]
  skin-lightening efficacy: some efficacy for skin-lightening

## N[C@H]1C(O)O[C@H](CO)[C@@H](O)[C@@H]1O (some centres unmarked) [glucosamine]
tyrosinase
  production of melanin: reduces production of melanin by inhibiting activation of tyrosinase

## NC(=O)c1cccnc1 [niacinamide]
[4]
  melanosome transfer: inhibits melanosome transfer from melanocytes to keratinocytes
